According to US12679878B2, “CRF2 receptor agonists and their use in therapy” (SANOFI, priority 2020, dated 2026):
Where two headings read alike, the source gives them in different places. Starred links: 1 amine or outer side, 2 acyl side, 3 side chain; linkers in the order of their positions; H or OH if unused. Residues, ends and D or L forms follow the SMILES beside them. Groups on a side chain read outwards from the residue. *: point of attachment. C18 diacid = O=C(O)CCCCCCCCCCCCCCCCC(=O)*; γGlu = O=C(O)[C@H](CCC(=O)[*:2])N[*:1]; Palmitoyl = CCCCCCCCCCCCCCCC(=O)*; AEEA = NCCOCCOCC(=O)O

Legend:
human CRF2α receptor = target: T1, human CRF2α receptor (Homo sapiens, UniProt Q13324); assay: cAMP agonism at human CRF2 α receptor in TeloHEAC cells (Example 7); type: cell-based; details: cAMP HTRF, TeloHEAC cells stably expressing human CRF2 α
T1 construct: expressed in transfected cells; host or cells: TeloHEAC
T1 sequence (Q13324 1-411): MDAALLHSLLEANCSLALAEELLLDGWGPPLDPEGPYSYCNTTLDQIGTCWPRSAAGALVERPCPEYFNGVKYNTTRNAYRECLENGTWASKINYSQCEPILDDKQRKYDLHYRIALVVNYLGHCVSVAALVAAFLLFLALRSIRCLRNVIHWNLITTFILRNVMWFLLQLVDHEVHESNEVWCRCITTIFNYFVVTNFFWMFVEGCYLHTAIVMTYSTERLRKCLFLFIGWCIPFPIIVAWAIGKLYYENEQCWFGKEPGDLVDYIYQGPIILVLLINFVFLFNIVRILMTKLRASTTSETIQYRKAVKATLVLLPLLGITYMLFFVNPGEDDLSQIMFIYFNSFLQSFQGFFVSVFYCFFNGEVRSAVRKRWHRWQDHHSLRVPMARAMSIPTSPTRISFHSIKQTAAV
Procedure, shortened: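 Cryopreserved cells are thawed, washed and resuspended in IBMX-containing (2 mM) HEPES-buffered HBSS with or without 0.1% HSA. Compound incubation runs 30 min at room temperature with 2000 cells per well, then cAMP is measured by time-resolved FRET. Potency is expressed as EC50, efficacy relative to urocortin 2 at 1000 nM.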

[1] = Solubility in buffer systems by UPLC-UV (Example 13); type: physicochemical
Procedure, shortened: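 Quantitation used UV peak area from UPLC of the 1:10-diluted supernatant, set against a reference-compound standard curve with extinction coefficients adjusted for amino acid sequence.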

recombinant human CRF2 = target: T2, recombinant human CRF2 (Homo sapiens, UniProt Q13324); assay: CRF2a (h) agonist radioligand binding, [125]sauvagine, HEK cell membranes (Example 11); details: for nH (Hill coefficient): competition with [125]sauvagine 0.1 nM
T2 construct: expressed in transfected cells; host or cells: HEK
T2 sequence (Q13324 1-411): T1 sequence (Q13324 1-411)
Description: Receptor binding of the compounds was assessed using a CRF2a (h) (agonist radioligand) assay.
HEK cells expressing recombinant human CRF2 were used as a source of receptor for membrane preparation.
IC50 values (concentration causing a half-maximal inhibition of control specific binding) and Hill coefficients (nH) were determined by non-linear regression analysis of the competition curves generated with mean replicate values using Hill equation curve fitting. The inhibition constants (Ki) were calculated using the Cheng Prusoff equation [Ki=IC50/(1+L/KD) where L is the concentration of radioligand in the assay, and KD is the affinity of the radioligand for the receptor). A Scatchard plot was used to determine the KD.

CRF1R receptor = target: T3, CRF1R receptor (Homo sapiens, UniProt P34998); assay: cAMP activity at anti-target CRF1R, CRF1R-overexpression CHO cell line (Example 9); type: cell-based
T3 construct: host or cells: CHO-K1 clone 2
T3 sequence (P34998 24-415): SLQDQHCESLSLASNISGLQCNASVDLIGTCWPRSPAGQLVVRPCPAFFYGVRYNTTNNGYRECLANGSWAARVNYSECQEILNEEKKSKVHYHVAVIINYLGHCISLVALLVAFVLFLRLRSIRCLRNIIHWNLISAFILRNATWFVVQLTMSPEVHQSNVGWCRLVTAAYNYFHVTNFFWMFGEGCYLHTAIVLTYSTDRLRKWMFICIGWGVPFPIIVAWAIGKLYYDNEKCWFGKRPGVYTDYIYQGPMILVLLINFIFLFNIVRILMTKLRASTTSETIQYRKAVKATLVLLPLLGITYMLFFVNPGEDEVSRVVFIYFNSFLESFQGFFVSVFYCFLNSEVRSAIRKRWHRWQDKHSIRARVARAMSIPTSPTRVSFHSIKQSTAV
Procedure, shortened: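 Using thawed CRF1R-overexpressing CHO cells at 2000 per well, compound is applied for 30 min at RT in HBSS/HEPES buffer with IBMX. Cellular cAMP content is determined via HTRF, and percent activity is calculated against 1000 nM UCN2 defined as 100%.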

rat CRF2R α receptor = assay: cAMP agonism at rat CRF2R α receptor in A7R5 rat aortic smooth muscle cells (Example 8); type: cell-based; details: cAMP HTRF, A7R5 rat aortic smooth muscle cell line, 0% HSA
Procedure, shortened: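 Potency (EC50) is the concentration reaching half-maximal activation, with responses scaled so that 1000 nM urocortin 2 equals 100%. Intracellular cAMP was quantified by homogeneous time-resolved fluorescence at 665/620 nm, 1 h after lysis-buffer reagents. Compound stimulation lasted 30 min at room temperature on 2000 IBMX-treated (2 mM) cells per well in HEPES-buffered HBSS.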

[2] = Chemical stability, purity loss by UPLC-UV after 28 days at 40° C. vs 5° C., pH 4.5 acetate buffer (Example 12); type: physicochemical; details: 28 days 40° C. vs 5° C.; pH 4.5, 20 mM acetate buffer; 300 μM
Procedure, shortened: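 300 μM compound (purity-corrected) in 20 mM acetate buffer, pH 4.5, stored 28 days at 5 and 40° C. Purity by UPLC-UV as compound peak area over total peak area. Value is the purity difference between 5° C. and 40° C. samples, relative to the 5° C. purity, in percent.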

[3] = 0% HSA, read-out: EC50 [nM], 0% HSA
[4] = pH 7.4, Solubility in Buffer C [mg/ml]

| EC50 (human CRF2α receptor; [3]) [nM] | solubility at 1 h [1, 4] [µg/mL] | nH (Hill coefficient) (recombinant human CRF2) | EC50 (CRF1R receptor; 0% HSA, CRF1R-overexpression CHO cell line) [nM] | Emax (CRF1R receptor; CRF1R-overexpression CHO cell line, read-out: Emax (%)) [%] | solubility at 1 h ([1]; pH 4.5, Solubility in Buffer B [mg/ml]) [µg/mL] | Relative purity loss [%] [2] [%] | Compound | EC50 (human CRF2α receptor; 0.1% HSA, read-out: EC50 [nM], 0.1% HSA) [nM] | Emax (CRF1R receptor; CHO) [%] | solubility at 1 h ([1]; Buffer B: 100 mM acetate buffer, pH 4.5, 2.7 mg/ml m-cresol, target 10 mg/ml, read-out: Solubility in Buffer B) [µg/mL] | solubility at 1 h ([1]; Buffer C: 100 mM phosphate buffer, pH 7.4, target 10 mg/ml, read-out: Solubility in Buffer C) [µg/mL] | Ki (recombinant human CRF2) [nM] | EC50 (rat CRF2R α receptor) [nM] |
| --- | --- | --- | --- | --- | --- | --- | --- | --- | --- | --- | --- | --- | --- |
| 0.02 | > 10700 | 1.5 | – | – | – | – | CCCCCCCCCCCCCCCC(=O)N[C@@H](CCC(=O)NCCCC[C@H](NC(=O)[C@H](CC(C)C)NC(=O)[C@H](CCCCN)NC(=O)[C@@H](NC(=O)[C@@H]1CCCN1C(=O)[C@@H](NC(=O)[C@H](CC(=O)O)NC(=O)[C@H](CC(C)C)NC(=O)[C@H](CO)NC(=O)[C@H](CC(C)C)NC(=O)[C@@H](NC(=O)[C@@H](N)[C@@H](C)CC)C(C)C)C(C)C)[C@@H](C)CC)C(=O)N[C@@H](CCCCN)C(=O)N[C@H](C(=O)N[C@@H](CC(C)C)C(=O)N[C@@H](CC(C)C)C(=O)N[C@@H](CCC(=O)O)C(=O)N[C@@H](CCC(N)=O)C(=O)N[C@@H](CCC(=O)O)C(=O)N[C@@H](CCCCN)C(=O)N[C@@H](CCC(N)=O)C(=O)N[C@@H](CCCCN)C(=O)N[C@@H](CCCCN)C(=O)N[C@@H](CCC(N)=O)C(=O)N[C@@H](CCCNC(=N)N)C(=O)N[C@@H](CCC(=O)O)C(=O)N[C@@H](CCC(N)=O)C(=O)N[C@@H](C)C(=O)N[C@@H](CCC(=O)O)C(=O)N[C@H](C(=O)N[C@@H](CC(N)=O)C(=O)N[C@@H](CCCCN)C(=O)N[C@@H](CCC(N)=O)C(=O)N[C@H](C(=O)N[C@@H](CC(C)C)C(=O)N[C@@H](C)C(=O)N[C@@H](CCC(N)=O)C(=O)N[C@H](C(N)=O)C(C)C)[C@@H](C)CC)[C@@H](C)O)[C@@H](C)CC)C(=O)O [compound 17] (H-IVLSLDVPIKLK([γGlu-Palmitoyl])KILLEQEKQKKQREQAETNKQILAQV-NH2; N-terminus assumed) | – | – | – | – | – | – |
| 0.2 | > 8900 | 0.8 | > 1000 | 12.3 | > 9800 | 6.00 | CC[C@H](C)[C@H](N)C(=O)N[C@H](C(=O)N[C@@H](CC(C)C)C(=O)N[C@@H](CO)C(=O)N[C@@H](CC(C)C)C(=O)N[C@@H](CC(=O)O)C(=O)N[C@H](C(=O)N1CCC[C@H]1C(=O)N[C@H](C(=O)N[C@@H](CCCCN)C(=O)N[C@@H](CC(C)C)C(=O)N[C@@H](CCCCNC(=O)COCCOCCNC(=O)COCCOCCNC(=O)CC[C@H](NC(=O)CCCCCCCCCCCCCCCCC(=O)O)C(=O)O)C(=O)N[C@@H](CCC(N)=O)C(=O)N[C@H](C(=O)N[C@@H](CC(C)C)C(=O)N[C@@H](CC(C)C)C(=O)N[C@@H](CCC(=O)O)C(=O)N[C@@H](CCC(N)=O)C(=O)N[C@@H](CCC(=O)O)C(=O)N[C@@H](CCCNC(=N)N)C(=O)N[C@@H](CCC(N)=O)C(=O)N[C@@H](CCCCN)C(=O)N[C@@H](CCCCN)C(=O)N[C@@H](CCC(N)=O)C(=O)N[C@@H](CCCNC(=N)N)C(=O)N[C@@H](CCC(=O)O)C(=O)N[C@@H](CCC(N)=O)C(=O)N[C@@H](C)C(=O)N[C@@H](CCC(=O)O)C(=O)N[C@H](C(=O)N[C@@H](CC(N)=O)C(=O)N[C@@H](CCCCN)C(=O)N[C@@H](CCC(N)=O)C(=O)N[C@H](C(=O)N[C@@H](CC(C)C)C(=O)N[C@@H](C)C(=O)N[C@@H](CCC(N)=O)C(=O)N[C@H](C(N)=O)C(C)C)[C@@H](C)CC)[C@@H](C)O)[C@@H](C)CC)[C@@H](C)CC)C(C)C)C(C)C [compound 68] (H-IVLSLDVPIKLK([AEEA-AEEA-γGlu-C18 diacid])QILLEQERQKKQREQAETNKQILAQV-NH2; N-terminus assumed) | – | – | – | – | – | 1.74 |

| Compound | EC50 (human CRF2α receptor; [3]) [nM] | solubility at 1 h [1, 4] [µg/mL] | nH (Hill coefficient) (recombinant human CRF2) | EC50 (CRF1R receptor; 0% HSA, CRF1R-overexpression CHO cell line) [nM] | Emax (CRF1R receptor; CRF1R-overexpression CHO cell line, read-out: Emax (%)) [%] | solubility at 1 h ([1]; pH 4.5, Solubility in Buffer B [mg/ml]) [µg/mL] | Relative purity loss [%] [2] [%] | EC50 (human CRF2α receptor; 0.1% HSA, read-out: EC50 [nM], 0.1% HSA) [nM] | Emax (CRF1R receptor; CHO) [%] | solubility at 1 h ([1]; Buffer B: 100 mM acetate buffer, pH 4.5, 2.7 mg/ml m-cresol, target 10 mg/ml, read-out: Solubility in Buffer B) [µg/mL] | solubility at 1 h ([1]; Buffer C: 100 mM phosphate buffer, pH 7.4, target 10 mg/ml, read-out: Solubility in Buffer C) [µg/mL] | Ki (recombinant human CRF2) [nM] | EC50 (rat CRF2R α receptor) [nM] |
| --- | --- | --- | --- | --- | --- | --- | --- | --- | --- | --- | --- | --- | --- |
| CC[C@H](C)[C@H](NC(=O)[C@H](CCC(N)=O)NC(=O)[C@H](CCC(=O)O)NC(=O)[C@H](CC(C)C)NC(=O)[C@H](CC(C)C)NC(=O)[C@H](CCC(N)=O)NC(=O)[C@H](CCCCN)NC(=O)[C@H](CC(N)=O)NC(=O)[C@H](CCCCN)NC(=O)[C@H](CCC(=O)O)NC(=O)[C@H](C)NC(=O)[C@H](CCC(N)=O)NC(=O)[C@H](CCC(N)=O)NC(=O)[C@H](CCCNC(=N)N)NC(=O)[C@H](CCC(=O)O)NC(=O)[C@H](CCCCN)NC(=O)[C@H](CCCCN)NC(=O)[C@H](CCC(N)=O)NC(=O)[C@H](CCCCN)NC(=O)[C@H](CCC(N)=O)NC(=O)[C@H](CCC(N)=O)NC(=O)[C@H](CCCCN)NC(=O)[C@H](CC(C)C)NC(=O)[C@H](CC(C)C)NC(=O)[C@@H](NC(=O)[C@H](CCC(N)=O)NC(=O)[C@H](CCCCNC(=O)COCCOCCNC(=O)COCCOCCNC(=O)CC[C@H](NC(=O)CCCCCCCCCCCCCCCCC(=O)O)C(=O)O)NC(=O)[C@@H](NC(=O)[C@H](CCCCN)NC(=O)[C@@H](NC(=O)[C@@H]1CCCN1C(=O)[C@@H](NC(=O)[C@H](CC(=O)O)NC(=O)[C@H](CC(C)C)NC(=O)[C@H](CO)NC(=O)[C@H](CC(C)C)NC(=O)[C@@H](NC(=O)[C@@H](N)Cc1ccccc1)[C@@H](C)O)C(C)C)[C@@H](C)O)[C@@H](C)CC)[C@@H](C)CC)C(N)=O [compound 51] (H-FTLSLDVPTKIK([AEEA-AEEA-γGlu-C18 diacid])QILLKQQKQKKERQQAEKNKQLLEQI-NH2; N-terminus assumed) | 0.32 | – | 0.8 | – | – | – | – | 21.4 | 3.38 | > 8800 | > 7700 | 4.3 | 0.87 |
